Data published in PubChem BioAssay (NCI).
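Interpolation was linear, between the two tested concentrations surrounding the appropriate level; five concentrations were tested over 48 hours in 96-well plates. At the GI50, growth is halved. TGI: concentration producing complete growth inhibition.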

Tests used:
Experiment in all cases: NCI tumour cell line growth inhibition, 48 h
OVCAR-5 ovarian = tested on: OVCAR-5 ovarian
MALME-3M melanoma = tested on: MALME-3M melanoma
HOP-92 NSCLC = tested on: HOP-92 NSCLC
U251 CNS = tested on: U251 CNS
NCI-H522 lung = tested on: NCI-H522 lung
OVCAR-8 ovarian = tested on: OVCAR-8 ovarian
EKVX NSCLC = tested on: EKVX NSCLC
MDA-MB-468 breast = tested on: MDA-MB-468 breast
HCC-2998 colon = tested on: HCC-2998 colon
SK-MEL-28 melanoma = tested on: SK-MEL-28 melanoma
SF-295 CNS = tested on: SF-295 CNS
SNB-19 CNS = tested on: SNB-19 CNS
SK-OV-3 ovarian = tested on: SK-OV-3 ovarian
SNB-75 CNS = tested on: SNB-75 CNS
CCRF-CEM leukemia = tested on: CCRF-CEM leukemia
HL-60(TB) leukemia = tested on: HL-60(TB) leukemia
MDA-MB-435 = tested on: MDA-MB-435
SF-539 CNS = tested on: SF-539 CNS
HT29 colon = tested on: HT29 colon
NCI-H23 lung = tested on: NCI-H23 lung
KM12 colon = tested on: KM12 colon
NCI-H226 lung = tested on: NCI-H226 lung
RXF 393 renal = tested on: RXF 393 renal
HCT-116 colon = tested on: HCT-116 colon
LOX IMVI melanoma = tested on: LOX IMVI melanoma
SN12C renal = tested on: SN12C renal
MDA-MB-231 breast = tested on: MDA-MB-231 breast
OVCAR-4 ovarian = tested on: OVCAR-4 ovarian
A498 renal = tested on: A498 renal
MCF7 breast = tested on: MCF7 breast
CAKI-1 renal = tested on: CAKI-1 renal
RPMI-8226 leukemia = tested on: RPMI-8226 leukemia
COLO 205 colon = tested on: COLO 205 colon
A549 NSCLC = tested on: A549 NSCLC
UO-31 renal = tested on: UO-31 renal
DU-145 prostate = tested on: DU-145 prostate
SW-620 colon = tested on: SW-620 colon
UACC-257 melanoma = tested on: UACC-257 melanoma
BT-549 breast = tested on: BT-549 breast
NCI-H460 lung = tested on: NCI-H460 lung
K-562 leukemia = tested on: K-562 leukemia
SK-MEL-2 melanoma = tested on: SK-MEL-2 melanoma
PC-3 prostate = tested on: PC-3 prostate
TK-10 renal = tested on: TK-10 renal
HS 578T breast = tested on: HS 578T breast
HOP-62 NSCLC = tested on: HOP-62 NSCLC
UACC-62 melanoma = tested on: UACC-62 melanoma
OVCAR-3 ovarian = tested on: OVCAR-3 ovarian
SF-268 CNS = tested on: SF-268 CNS
T-47D breast = tested on: T-47D breast
HCT-15 colon = tested on: HCT-15 colon
MOLT-4 leukemia = tested on: MOLT-4 leukemia
ACHN renal = tested on: ACHN renal
IGROV1 ovarian = tested on: IGROV1 ovarian
SR leukemia = tested on: SR leukemia
786-0 renal = tested on: 786-0 renal
SK-MEL-5 melanoma = tested on: SK-MEL-5 melanoma
M14 melanoma = tested on: M14 melanoma

## Cc1ccc(C(=O)Nc2cc(-n3ccnc3C)cc(C(F)(F)F)c2)cc1C#Cc1cnc2cccnn12
OVCAR-5 ovarian
  GI50: 1.27 µM
  TGI: 8.91 µM
MALME-3M melanoma
  GI50: 0.25 µM
  TGI: 1.73 µM
HOP-92 NSCLC
  GI50: 0.918 µM
  TGI: 4.61 µM
U251 CNS
  GI50: 4.23 µM
  TGI: 13.4 µM
NCI-H522 lung
  GI50: 2.74 µM
  TGI: 9.44 µM
OVCAR-8 ovarian
  GI50: 3.49 µM
  TGI: 11.1 µM
EKVX NSCLC
  GI50: 6.85 µM
  TGI: > 29.3 µM
MDA-MB-468 breast
  GI50: 6.89 µM
  TGI: 19.7 µM
HCC-2998 colon
  GI50: 2.55 µM
  TGI: 11 µM
SK-MEL-28 melanoma
  GI50: 0.898 µM
  TGI: 4.47 µM
SF-295 CNS
  GI50: 3.13 µM
  TGI: 8.7 µM
SNB-19 CNS
  GI50: 6.09 µM
  TGI: 19.1 µM
SK-OV-3 ovarian
  GI50: 5.64 µM
  TGI: 14.9 µM
SNB-75 CNS
  GI50: 2.98 µM
  TGI: 8.74 µM
CCRF-CEM leukemia
  GI50: 3.45 µM
  TGI: > 29.3 µM
HL-60(TB) leukemia
  GI50: 0.257 µM
  TGI: > 29.3 µM
MDA-MB-435
  GI50: 3.07 µM
  TGI: 14.7 µM
SF-539 CNS
  GI50: 0.916 µM
  TGI: 4 µM
HT29 colon
  GI50: 0.848 µM
  TGI: 4.94 µM
NCI-H23 lung
  GI50: 1.53 µM
  TGI: 12.2 µM
KM12 colon
  GI50: 0.131 µM
  TGI: 24.6 µM
NCI-H226 lung
  GI50: 1.23 µM
  TGI: 6.47 µM
RXF 393 renal
  GI50: 1.64 µM
  TGI: 6.11 µM
HCT-116 colon
  GI50: 1.31 µM
  TGI: 8.25 µM
LOX IMVI melanoma
  GI50: 0.702 µM
  TGI: 4.35 µM
SN12C renal
  GI50: 0.948 µM
  TGI: 5.97 µM
MDA-MB-231 breast
  GI50: 0.364 µM
  TGI: 3.2 µM
OVCAR-4 ovarian
  GI50: 4.51 µM
  TGI: 16.3 µM
A498 renal
  GI50: 3.26 µM
  TGI: 9.74 µM
MCF7 breast
  GI50: 5.06 µM
  TGI: > 29.3 µM
CAKI-1 renal
  GI50: 1.76 µM
  TGI: 6.52 µM
RPMI-8226 leukemia
  GI50: 1.27 µM
  TGI: 15 µM
COLO 205 colon
  GI50: 1.7 µM
  TGI: 15.6 µM
A549 NSCLC
  GI50: 3.01 µM
  TGI: 13.5 µM
UO-31 renal
  GI50: 1.13 µM
  TGI: 6.17 µM
DU-145 prostate
  GI50: 5.23 µM
  TGI: 23.1 µM
SW-620 colon
  GI50: 2.43 µM
  TGI: > 29.3 µM
UACC-257 melanoma
  GI50: 1.78 µM
  TGI: 8.74 µM
BT-549 breast
  GI50: 3.4 µM
  TGI: 8.39 µM
NCI-H460 lung
  GI50: 3.68 µM
  TGI: 10.8 µM
K-562 leukemia
  GI50: 0.00293 µM
  TGI: > 29.3 µM
SK-MEL-2 melanoma
  GI50: 0.84 µM
  TGI: 4.62 µM
PC-3 prostate
  GI50: 4.51 µM
  TGI: 15.3 µM
TK-10 renal
  GI50: 4.27 µM
  TGI: 14 µM
HS 578T breast
  GI50: 1.12 µM
  TGI: 7.31 µM
HOP-62 NSCLC
  GI50: 1.88 µM
  TGI: 9.67 µM
UACC-62 melanoma
  GI50: 0.756 µM
  TGI: 4.13 µM
OVCAR-3 ovarian
  GI50: 9.25 µM
  TGI: 29.1 µM
SF-268 CNS
  GI50: 4 µM
  TGI: 16.4 µM
T-47D breast
  GI50: 4.24 µM
  TGI: 12.6 µM
HCT-15 colon
  GI50: 2.44 µM
  TGI: > 29.3 µM
MOLT-4 leukemia
  GI50: 2.42 µM
  TGI: > 29.3 µM
ACHN renal
  GI50: 2.49 µM
  TGI: 6.69 µM
IGROV1 ovarian
  GI50: 2.62 µM
  TGI: 23.2 µM
SR leukemia
  GI50: 2.44 µM
  TGI: > 29.3 µM
786-0 renal
  GI50: 4.02 µM
  TGI: 11.9 µM
SK-MEL-5 melanoma
  GI50: 3.33 µM
  TGI: 8.81 µM
M14 melanoma
  GI50: 0.924 µM
  TGI: 24.4 µM

## O=C(/C=C/c1ccc(Br)cc1)c1nc2ccccc2n1Cc1ccc(Br)cc1
OVCAR-5 ovarian
  GI50: > 100 µM
  TGI: > 100 µM
MALME-3M melanoma
  GI50: > 100 µM
  TGI: > 100 µM
HOP-92 NSCLC
  GI50: 58.6 µM
  TGI: > 100 µM
U251 CNS
  GI50: 42.6 µM
  TGI: > 100 µM
NCI-H522 lung
  GI50: > 100 µM
  TGI: > 100 µM
OVCAR-8 ovarian
  GI50: 97.7 µM
  TGI: > 100 µM
EKVX NSCLC
  GI50: > 100 µM
  TGI: > 100 µM
MDA-MB-468 breast
  GI50: 35.9 µM
  TGI: > 100 µM
HCC-2998 colon
  GI50: > 100 µM
  TGI: > 100 µM
SK-MEL-28 melanoma
  GI50: > 100 µM
  TGI: > 100 µM
SF-295 CNS
  GI50: > 100 µM
  TGI: > 100 µM
SNB-19 CNS
  GI50: > 100 µM
  TGI: > 100 µM
SK-OV-3 ovarian
  GI50: > 100 µM
  TGI: > 100 µM
SNB-75 CNS
  GI50: > 100 µM
  TGI: > 100 µM
CCRF-CEM leukemia
  GI50: 18.2 µM
  TGI: > 100 µM
HL-60(TB) leukemia
  GI50: 24.1 µM
  TGI: > 100 µM
MDA-MB-435
  GI50: 35.6 µM
  TGI: > 100 µM
SF-539 CNS
  GI50: > 100 µM
  TGI: > 100 µM
HT29 colon
  GI50: 68.7 µM
  TGI: > 100 µM
NCI-H23 lung
  GI50: > 100 µM
  TGI: > 100 µM
KM12 colon
  GI50: 80.5 µM
  TGI: > 100 µM
NCI-H226 lung
  GI50: > 100 µM
  TGI: > 100 µM
RXF 393 renal
  GI50: 86.9 µM
  TGI: > 100 µM
HCT-116 colon
  GI50: 56.6 µM
  TGI: > 100 µM
LOX IMVI melanoma
  GI50: 30.9 µM
  TGI: > 100 µM
SN12C renal
  GI50: > 100 µM
  TGI: > 100 µM
MDA-MB-231 breast
  GI50: 99.1 µM
  TGI: > 100 µM
OVCAR-4 ovarian
  GI50: > 100 µM
  TGI: > 100 µM
A498 renal
  GI50: > 100 µM
  TGI: > 100 µM
MCF7 breast
  GI50: 24.1 µM
  TGI: > 100 µM
CAKI-1 renal
  GI50: 53 µM
  TGI: > 100 µM
RPMI-8226 leukemia
  GI50: 25.2 µM
  TGI: > 100 µM
COLO 205 colon
  GI50: > 100 µM
  TGI: > 100 µM
A549 NSCLC
  GI50: > 100 µM
  TGI: > 100 µM
UO-31 renal
  GI50: 45.9 µM
  TGI: > 100 µM
DU-145 prostate
  GI50: > 100 µM
  TGI: > 100 µM
SW-620 colon
  GI50: 30 µM
  TGI: > 100 µM
UACC-257 melanoma
  GI50: > 100 µM
  TGI: > 100 µM
BT-549 breast
  GI50: 96 µM
  TGI: > 100 µM
NCI-H460 lung
  GI50: 59.3 µM
  TGI: > 100 µM
K-562 leukemia
  GI50: 39.5 µM
  TGI: > 100 µM
SK-MEL-2 melanoma
  GI50: > 100 µM
  TGI: > 100 µM
PC-3 prostate
  GI50: 58.6 µM
  TGI: > 100 µM
TK-10 renal
  GI50: > 100 µM
  TGI: > 100 µM
HS 578T breast
  GI50: > 100 µM
  TGI: > 100 µM
HOP-62 NSCLC
  GI50: > 100 µM
  TGI: > 100 µM
UACC-62 melanoma
  GI50: > 100 µM
  TGI: > 100 µM
OVCAR-3 ovarian
  GI50: 35 µM
  TGI: > 100 µM
SF-268 CNS
  GI50: > 100 µM
  TGI: > 100 µM
T-47D breast
  GI50: 24.7 µM
  TGI: > 100 µM
HCT-15 colon
  GI50: 40.5 µM
  TGI: > 100 µM
MOLT-4 leukemia
  GI50: 17 µM
  TGI: > 100 µM
ACHN renal
  GI50: > 100 µM
  TGI: > 100 µM
IGROV1 ovarian
  GI50: > 100 µM
  TGI: > 100 µM
SR leukemia
  GI50: 28 µM
  TGI: > 100 µM
786-0 renal
  GI50: > 100 µM
  TGI: > 100 µM
SK-MEL-5 melanoma
  GI50: > 100 µM
  TGI: > 100 µM
M14 melanoma
  GI50: > 100 µM
  TGI: > 100 µM
